We go through two compounds from paper PMC8069432, “Thiosemicarbazide Derivatives Decrease the ATPase Activity of Staphylococcus aureus Topoisomerase IV, Inhibit Mycobacterial Growth, and Affect Replication in Mycobacterium smegmatis” (International Journal of Molecular Sciences, 2021).

This test addresses T1, S. aureus topoisomerase IV (ATPase kit; ParE subunit) (Staphylococcus aureus, UniProt Q5HG65).
T1 construct: purified topoisomerase IV from commercial kit (Inspiralis), C2E2 heterotetramer; with DNA topoisomerase 4 subunit A
The test can be described thus: PK/LDH-coupled ATPase assay, A340. The test is classed as biochemical. The text has this: PK/LDH-coupled ATPase assay, A340 on S. aureus topoisomerase IV (ATPase kit; ParE subunit)

Read-outs that look alike come from different tables or passages of the source.

T1 sequence (Q2FYS4 whole entry): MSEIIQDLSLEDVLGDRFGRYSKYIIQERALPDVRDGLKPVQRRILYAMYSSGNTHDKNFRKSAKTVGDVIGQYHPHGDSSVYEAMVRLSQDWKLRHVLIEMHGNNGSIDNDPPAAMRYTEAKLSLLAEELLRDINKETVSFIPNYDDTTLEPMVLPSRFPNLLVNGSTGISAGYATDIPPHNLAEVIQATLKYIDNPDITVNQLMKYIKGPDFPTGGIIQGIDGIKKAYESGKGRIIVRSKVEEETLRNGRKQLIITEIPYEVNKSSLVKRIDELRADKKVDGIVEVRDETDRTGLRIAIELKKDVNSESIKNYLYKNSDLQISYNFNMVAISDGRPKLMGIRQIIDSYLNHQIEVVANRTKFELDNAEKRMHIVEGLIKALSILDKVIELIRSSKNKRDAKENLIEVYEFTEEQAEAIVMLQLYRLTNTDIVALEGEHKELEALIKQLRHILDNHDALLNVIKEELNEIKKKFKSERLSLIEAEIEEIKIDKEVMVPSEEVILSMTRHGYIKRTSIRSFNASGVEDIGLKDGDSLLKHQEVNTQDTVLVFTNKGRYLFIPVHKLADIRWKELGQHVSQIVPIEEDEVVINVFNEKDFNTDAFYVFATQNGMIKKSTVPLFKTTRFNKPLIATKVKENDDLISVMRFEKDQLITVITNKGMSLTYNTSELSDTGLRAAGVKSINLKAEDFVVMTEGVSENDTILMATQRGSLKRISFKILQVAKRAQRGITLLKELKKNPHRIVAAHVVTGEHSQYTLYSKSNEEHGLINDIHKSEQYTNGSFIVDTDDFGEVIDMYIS
T1 sequence (Q5HG65 whole entry): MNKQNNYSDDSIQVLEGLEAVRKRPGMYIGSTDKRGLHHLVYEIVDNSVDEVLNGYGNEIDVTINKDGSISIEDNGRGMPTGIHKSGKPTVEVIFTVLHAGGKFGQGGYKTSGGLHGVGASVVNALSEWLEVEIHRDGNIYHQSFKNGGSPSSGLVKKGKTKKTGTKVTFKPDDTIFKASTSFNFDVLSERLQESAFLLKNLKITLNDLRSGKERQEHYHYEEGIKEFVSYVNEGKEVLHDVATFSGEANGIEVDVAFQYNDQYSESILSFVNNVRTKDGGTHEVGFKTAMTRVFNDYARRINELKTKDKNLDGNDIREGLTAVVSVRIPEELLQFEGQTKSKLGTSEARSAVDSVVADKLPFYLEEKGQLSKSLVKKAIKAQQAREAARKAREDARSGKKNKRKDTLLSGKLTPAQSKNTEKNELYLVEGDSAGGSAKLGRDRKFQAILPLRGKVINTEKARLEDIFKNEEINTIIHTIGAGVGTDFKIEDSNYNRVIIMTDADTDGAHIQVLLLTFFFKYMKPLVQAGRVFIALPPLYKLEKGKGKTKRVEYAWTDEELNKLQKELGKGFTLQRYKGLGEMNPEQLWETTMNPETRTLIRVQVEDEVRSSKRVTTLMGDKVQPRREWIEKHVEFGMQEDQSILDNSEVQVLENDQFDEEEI

`O=C(NNC(=S)Nc1ccc([N+](=O)[O-])cc1)c1cc2ccccc2[nH]1` [compound 4, 1-(indol-2-oyl)-4-(4-nitrophenyl) thiosemicarbazide]: under “read-out: 4”, the inhibition at 20 µM is 55.8 ± 1.59%. Regarding `O=C(NC(=S)NNC(=O)c1cc2ccccc2[nH]1)c1ccccc1` [compound 7, 4-benzoyl-1-(indol-2-oyl) thiosemicarbazide], the inhibition at 20 µM (read-out: 7) was determined as 49.4 ± 2.27%.
